Assay results: ChEMBL document CHEMBL1201862, “PubChem BioAssay data set” (2004)
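Cultured in 96-well plates, cells were exposed to test compound for 48 hours across five concentrations. GI50: concentration for 50% inhibition of growth.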 Active and inactive are the calls of the source. Cut-off read from the data, not from the text of the source: active = GI50 up to about 1.1 µM and inactive = higher.

Assays:
Assay in all cases: NCI-60 cell line screen, 48 h
XF498 = test system: XF498
LXFL 529 = test system: LXFL 529
M19-MEL = test system: M19-MEL
DLD-1 = test system: DLD-1
KM-20L2 = test system: KM-20L2
DMS-273 = test system: DMS-273
DMS-114 = test system: DMS-114
HOP-18 = test system: HOP-18
RXF 631 = test system: RXF 631

SMILES	GI50 (XF498)	GI50 (LXFL 529)	GI50 (M19-MEL)	GI50 (DLD-1)	GI50 (KM-20L2)	GI50 (DMS-273)	GI50 (DMS-114)	GI50 (HOP-18)	GI50 (RXF 631)
COc1cc2c(c(OC)c1OC)-c1ccc(SC)c(=O)cc1C(CC(=O)Oc1cccc(C#N)c1)C2 (centres undefined)	0.316 µM (active)	0.516 µM (active)	0.303 µM (active)	0.388 µM (active)	0.208 µM (active)	0.2 µM (active)	0.251 µM (active)	> 100 µM (inactive)	
O=c1/c(=C/c2ccccc2F)sc2nc3ccccc3n12	> 100 µM (inactive)	88.3 µM (inactive)	> 100 µM (inactive)	> 100 µM (inactive)	> 100 µM (inactive)	> 100 µM (inactive)	67.3 µM (inactive)		> 100 µM (inactive)
CCc1cc(Cc2ccc(C)c(NC(=O)C(=O)C3C(=O)NC(=O)NC3=O)c2CC)cc(C)c1NC(=O)C(=O)C1C(=O)NC(=O)NC1=O		> 100 µM (inactive)	> 100 µM (inactive)	> 100 µM (inactive)	> 100 µM (inactive)	> 100 µM (inactive)	> 100 µM (inactive)		> 100 µM (inactive)
Cc1c(C(=O)CSc2nc3ccccc3[nH]2)c(=O)n(-c2ccccc2)n1C	> 100 µM (inactive)	> 100 µM (inactive)	> 100 µM (inactive)	> 100 µM (inactive)	> 100 µM (inactive)	> 100 µM (inactive)			
COc1cccc2c1C(=O)c1c(O)c3c(c(O)c1C2=O)C[C@@](O)(C(C)O)C[C@@H]3OC1CC(N)C(O)C(C)O1 (some centres undefined)	0.614 µM (active)	1.02 µM (active)	1.16 µM (inactive)	2.99 µM (inactive)	3.24 µM (inactive)	0.569 µM (active)	0.163 µM (active)	0.00497 µM (active)	2 µM (inactive)
C=C1C(=O)OC2/C=C(\CO)C3OC3C3OC3(C)CC(OC(=O)/C(=C/C)COC(C)=O)C12 (centres undefined)	1.8 µM (inactive)	0.805 µM (active)	1.88 µM (inactive)	1.11 µM (active)	6.17 µM (inactive)	3.12 µM (inactive)	5.87 µM (inactive)	9.79 µM (inactive)	
O=C(CC1(O)C(=O)Nc2c(Cl)cc(Cl)cc21)c1ccccc1 (centres undefined)	47.1 µM (inactive)	50.1 µM (inactive)	31.6 µM (inactive)		> 100 µM (inactive)	45.7 µM (inactive)	39.7 µM (inactive)		> 100 µM (inactive)
O=C1OC(O)C(Oc2c(Cl)cccc2Cl)=C1Cl (centres undefined)		16.6 µM (inactive)		15.7 µM (inactive)	17.8 µM (inactive)	15.8 µM (inactive)		19.1 µM (inactive)	
CC(C(=O)c1ccccc1)C1(O)C(=O)Nc2ccccc21 (centres undefined)			> 100 µM (inactive)	> 100 µM (inactive)	> 100 µM (inactive)	> 100 µM (inactive)	> 100 µM (inactive)	> 100 µM (inactive)	> 100 µM (inactive)
N#CC1=C(N)N2C(=O)/C(=C/c3ccccc3)SC2C(c2nc3ccccc3[nH]2)=C1c1ccccc1 (centres undefined)	2.11 µM (inactive)	2.49 µM (inactive)	2.88 µM (inactive)	3.26 µM (inactive)	2.75 µM (inactive)	2.07 µM (inactive)	2.16 µM (inactive)		
CCCCN(CCCC)/C(=N\C#N)NCc1ccccc1		15.4 µM (inactive)	19 µM (inactive)	23.8 µM (inactive)	22 µM (inactive)	24.6 µM (inactive)		46.6 µM (inactive)	
Cc1ccc(C(=O)NCc2ccccc2)cc1/N=N/N(C)C		47.5 µM (inactive)	> 100 µM (inactive)	> 100 µM (inactive)	65.9 µM (inactive)	> 100 µM (inactive)			
Cc1cc(NS(=O)(=O)c2ccc(NC(=O)c3ccc(Cl)c4c(Nc5ccc(S(N)(=O)=O)cc5)c5ccccc5nc34)cc2)no1	19.5 µM (inactive)	15.9 µM (inactive)	20 µM (inactive)	21.7 µM (inactive)	24.5 µM (inactive)	21.5 µM (inactive)	20.2 µM (inactive)	30.1 µM (inactive)	21.6 µM (inactive)
CC(=O)NC(CCCCN)C(=O)NCc1ccccc1 (centres undefined)	> 100 µM (inactive)	> 100 µM (inactive)	> 100 µM (inactive)	> 100 µM (inactive)	> 100 µM (inactive)	> 100 µM (inactive)	> 100 µM (inactive)		
